Measurements published in patent US20060252807A1, “Novel ortho-terphenyl inhibitors of p38 kinase and methods of treating inflammatory disorders” (Kalypsys, Inc., priority 2005, published 2006).

Biological target: T1, active p38 alpha enzyme (Upstate Biotechnology) (Homo sapiens, UniProt Q16539)
T1 construct: purchased Upstate Biotechnology
Experiment: p38α biochemical assay (ATP turnover, luminescent detection, Cambrex PKlight)
Conditions: p38α kinase; Table 1 Biological Activity
Summary of the method: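 Measures total ATP turnover by luminescence after human p38α phosphorylates full MapkapK2 protein. Final ATP is 1.4 uM, and incubation runs 2 hours at 30C. The buffer includes 100 mM MgCl2, 4 mM CaCl2 and 1 mg/ml BSA.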

T1 sequence (Q16539 whole entry): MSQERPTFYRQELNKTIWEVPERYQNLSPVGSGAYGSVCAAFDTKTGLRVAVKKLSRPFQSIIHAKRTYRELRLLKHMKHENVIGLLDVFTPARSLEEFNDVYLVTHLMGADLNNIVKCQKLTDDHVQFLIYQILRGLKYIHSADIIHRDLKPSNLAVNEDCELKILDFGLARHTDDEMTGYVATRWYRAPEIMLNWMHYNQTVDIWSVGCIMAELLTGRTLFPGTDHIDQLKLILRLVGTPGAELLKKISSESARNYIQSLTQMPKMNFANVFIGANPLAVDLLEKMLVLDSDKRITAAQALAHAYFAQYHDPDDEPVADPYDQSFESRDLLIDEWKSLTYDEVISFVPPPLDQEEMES

Row | SMILES | IC50 [µM]
1 | Cc1nc(-c2ccc(F)cc2)c(-c2nc(C(=O)NCCc3cccc(Cl)c3)cs2)s1 [Example 1804] | ≤ 1
2 | Cc1nc(-c2ccc(F)cc2)c(-c2nc(C(=O)NCCc3c[nH]c4ccccc34)cs2)s1 [Example 1809] | ≤ 1
3 | CCOC(=O)N1CCC(NC(=O)c2csc(-c3sc(C)nc3-c3ccc(F)cc3)n2)CC1 [Example 1816] | > 1
4 | Cc1nc(-c2ccc(F)cc2)c(-c2nc(C(=O)NCc3ccc(C(F)(F)F)cc3)cs2)s1 [Example 1818] | ≤ 1
5 | Cc1nc(-c2ccc(F)cc2)c(-c2nc(C(=O)NCc3cccc(C(F)(F)F)c3)cs2)s1 [Example 1819] | ≤ 1
6 | Cc1nc(-c2ccc(F)cc2)c(-c2nc(C(=O)NC3CCN(Cc4ccccc4)C3)cs2)s1 (stereo not shown) [Example 1822] | ≤ 1
7 | COc1ccc(OC)c(CCNC(=O)c2csc(-c3sc(C)nc3-c3ccc(F)cc3)n2)c1 [Example 1823] | ≤ 1
8 | Cc1nc(-c2ccc(F)cc2)c(-c2nc(C(=O)NC3CCN(Cc4ccccc4)CC3)cs2)s1 [Example 1826] | > 1
9 | Cc1nc(-c2ccc(F)cc2)c(-c2nc(C(=O)NCc3ccccc3OC(F)(F)F)cs2)s1 [Example 1827] | ≤ 1
10 | Cc1nc(-c2ccc(F)cc2)c(-c2nc(C(=O)NCCc3ccc(S(N)(=O)=O)cc3)cs2)s1 [Example 1828] | ≤ 1
11 | COc1ccc(C(=O)CNC(=O)c2csc(-c3sc(C)nc3-c3ccc(F)cc3)n2)cc1 [Example 1829] | > 1
12 | Cc1nc(-c2ccc(F)cc2)c(-c2nc(C(=O)NCCc3ccc4c(c3)OCO4)cs2)s1 [Example 1830] | ≤ 1
13 | Cc1nc(-c2ccc(F)cc2)c(-c2nc(C(=O)NCCC(c3ccccc3)c3ccccc3)cs2)s1 [Example 1831] | > 1
14 | Cc1ccc(S(=O)(=O)NCCNC(=O)c2csc(-c3sc(C)nc3-c3ccc(F)cc3)n2)cc1 [Example 1832] | ≤ 1

Continued, values first:

Row | IC50 [µM] | SMILES
15 | > 1 | Cc1nc(-c2ccc(F)cc2)c(-c2nc(C(=O)NC3CC(C)(C)NC(C)(C)C3)cs2)s1 [Example 1805]
16 | > 1 | CCN(CC)CCCC(C)NC(=O)c1csc(-c2sc(C)nc2-c2ccc(F)cc2)n1 (stereo not shown) [Example 1806]
17 | ≤ 1 | Cc1nc(-c2ccc(F)cc2)c(-c2nc(C(=O)NCc3ccc(F)c(Cl)c3)cs2)s1 [Example 1807]
18 | ≤ 1 | Cc1nc(-c2ccc(F)cc2)c(-c2nc(C(=O)NCCNC(=O)OC(C)(C)C)cs2)s1 [Example 1808]
19 | > 1 | Cc1nc(-c2ccc(F)cc2)c(-c2nc(C(=O)NCc3ccc(C(C)(C)C)cc3)cs2)s1 [Example 1810]
20 | ≤ 1 | Cc1nc(-c2ccc(F)cc2)c(-c2nc(C(=O)NCCCN(C)c3ccccc3)cs2)s1 [Example 1811]
21 | ≤ 1 | Cc1nc(-c2ccc(F)cc2)c(-c2nc(C(=O)NCC3(O)CCCCC3)cs2)s1 [Example 1812]
22 | ≤ 1 | COc1cc(CNC(=O)c2csc(-c3sc(C)nc3-c3ccc(F)cc3)n2)cc(OC)c1 [Example 1813]
23 | ≤ 1 | COc1ccc(CNC(=O)c2csc(-c3sc(C)nc3-c3ccc(F)cc3)n2)cc1OC [Example 1814]
24 | > 1 | Cc1nc(-c2ccc(F)cc2)c(-c2nc(C(=O)NCC(=O)c3ccccc3)cs2)s1 [Example 1815]
25 | ≤ 1 | Cc1nc(-c2ccc(F)cc2)c(-c2nc(C(=O)NCCCNC(=O)OC(C)(C)C)cs2)s1 [Example 1817]
26 | ≤ 1 | Cc1nc(-c2ccc(F)cc2)c(-c2nc(C(=O)NCc3ccc(Cl)c(Cl)c3)cs2)s1 [Example 1820]
27 | ≤ 1 | Cc1nc(-c2ccc(F)cc2)c(-c2nc(C(=O)NCc3ccc(Cl)cc3Cl)cs2)s1 [Example 1821]
28 | ≤ 1 | Cc1nc(-c2ccc(F)cc2)c(-c2nc(C(=O)NCc3ccc(N(C)C)cc3)cs2)s1 [Example 1824]
29 | ≤ 1 | COc1ccc(CNC(=O)c2csc(-c3sc(C)nc3-c3ccc(F)cc3)n2)cc1O [Example 1825]
30 | > 1 | Cc1nc(-c2ccc(F)cc2)c(-c2nc(C(=O)N(C)C)cs2)s1 [Example 1834]
31 | > 1 | CCN(C)C(=O)c1csc(-c2sc(C)nc2-c2ccc(F)cc2)n1 [Example 1835]
